We go through six molecules from patent publication US8912224B2, “Substituted 2-(chroman-6-yloxy)-thiazoles and their use as pharmaceuticals” (Sanofi, priority 2011, dated 2014).

The experiment deals with human NCX1 (Homo sapiens (Human), UniProt P32418). The experiment in a line: Inhibition of Ca2+ efflux out of cells (NCX1 forward mode), FLIPR assay. The class given is cell-based. The settings on record: CHO cells stably expressing human NCX1, Ionomycin 2 μM, read-out: NCX1fw IC50. An excerpt: The sodium/calcium exchanger NCX1 can transport calcium ions and sodium ions through the cell membrane. The transport is an exchange of Ca^2+and Na^+in two directions depending on membrane potential and ion gradients. At the first direction, named “forward mode” or “calcium export mode”, Ca^2+is transported out of the cell and Na^+ is transported into the cell. At the other direction, named “reverse mode” or “calcium import mode”, the transport directions are vice versa. The effect of the compounds of the invention on NCX1 was determined in CHO cells stably expressing human NCX1 (gene symbol SLC8A1; cf. WO 2009/115238). The assay is based on the monitoring of intracellular Ca^2+concentrations using a calcium-sensitive fluorescence dye which is detected by means of a FLIPR device (Fluorimetric Imaging Plate Reader, Molecular Devices).
Sequence of human NCX1 (P32418 whole entry, looked up): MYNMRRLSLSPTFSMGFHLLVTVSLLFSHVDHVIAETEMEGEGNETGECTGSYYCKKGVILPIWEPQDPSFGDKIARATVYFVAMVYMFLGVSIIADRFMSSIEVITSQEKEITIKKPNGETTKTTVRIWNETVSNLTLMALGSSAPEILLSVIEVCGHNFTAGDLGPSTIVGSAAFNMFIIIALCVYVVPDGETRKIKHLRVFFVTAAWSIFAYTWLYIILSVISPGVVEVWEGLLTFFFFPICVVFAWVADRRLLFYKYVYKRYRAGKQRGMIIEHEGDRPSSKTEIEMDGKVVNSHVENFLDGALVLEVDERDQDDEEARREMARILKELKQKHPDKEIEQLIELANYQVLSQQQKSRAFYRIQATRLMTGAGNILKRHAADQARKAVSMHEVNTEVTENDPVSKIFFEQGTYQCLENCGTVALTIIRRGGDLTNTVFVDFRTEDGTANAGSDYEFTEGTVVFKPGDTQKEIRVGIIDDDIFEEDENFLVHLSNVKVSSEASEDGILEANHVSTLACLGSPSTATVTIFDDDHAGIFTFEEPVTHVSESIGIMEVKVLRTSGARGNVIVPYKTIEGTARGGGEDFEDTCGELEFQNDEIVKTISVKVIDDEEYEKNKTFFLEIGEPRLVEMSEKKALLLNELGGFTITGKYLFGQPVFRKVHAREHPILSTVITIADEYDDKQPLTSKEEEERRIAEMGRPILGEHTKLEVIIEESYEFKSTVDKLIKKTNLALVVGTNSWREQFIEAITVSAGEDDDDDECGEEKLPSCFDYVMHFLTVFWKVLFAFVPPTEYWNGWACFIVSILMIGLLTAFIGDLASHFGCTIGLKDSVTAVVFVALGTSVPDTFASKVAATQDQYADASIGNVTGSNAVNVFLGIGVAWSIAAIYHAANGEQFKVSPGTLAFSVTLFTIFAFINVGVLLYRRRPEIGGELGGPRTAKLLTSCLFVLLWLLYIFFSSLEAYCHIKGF
Assay Technology—Forward Mode
The assay is based on the monitoring of intracellular Ca^2+concentrations using the PBX Calcium Assay Kit from BD (Becton, Dickinson and Company) with calcium indicator dye 51-9000177BKa (BD, 640177), CHO cells expressing NCX1 were loaded with the dye, and after a preincubation period with the test compound, lonomycin (Calbiochem, 407950) was added. Ionomycin is an ionophor for Ca^2+ions mediating an increase of intracellular Ca^2+ions. Consequently, intracellular Ca^2+ions are exchanged against extracellular Na^+ions (Ca^2+efflux, forward mode). The decrease of intracellular Ca^2+ions was detected by measuring the fluorescence of the calcium indicator dye at a wavelength of 520 nm by a FLIPR device.
Briefly, similarly as for the reverse mode, for the forward mode transport assay 18000 cells per well were seeded into a 96 well microplate (Corning COSTAR 3904) and incubated overnight in culture medium (cf. above). A total volume of 100 μl medium per well was used. For the preparation of the FLIPR assay, the culture medium was removed from the plates and 100 μl of assay buffer (133.8 mM NaCl (Sigma, S5886); 4.7 mM KCl (Sigma, P3911); 1.25 mM MgCl2 (Merck, 1.05833.0250); 3.5 mM CaCl2 (Merck, 1.02083.0250); 5 mM glucose (Sigma. G7021); 10 mM Hepes (Sigma, H4034); pH 7.4)) were added to each well in a washing step. Assay buffer was removed, and 100 μl of a solution of the test compound in assay buffer in different concentrations were added into the wells. Further, 100 μl of dye solution (0.09% (v/v) calcium indicator dye, 9.1% (v/v) signal enhancer (from PBX Calcium Assay Kit); in assay buffer) were added into each well. The plates were incubated in the dark at room temperature for 60 min. Meanwhile a 10 μM solution of lonomycin in assay buffer (additionally containing 0.05% fetal calf serum (cf. above); 4° C.) was prepared and stored in the wells of a 96 well microplate (96 well microplate, polypropylene, U-shape (Greiner Bio-One, 650201)). The fluorescence monitoring was performed at 60 measuring points with measurement intervals of 2 sec. After the fifth measuring point, 50 μl of the lonomycin solution were added to each well of the assay plate to give a final lonomycin concentration of 2 μM. For the determination of the IC50 values the minimal fluorescence value was subtracted from the maximal fluorescence value for the fifteenth to fifty-fifth measuring points. The calculation of the IC50 values via the percentage inhibitions of Ca^2+efflux out of cells (forward mode) effected by the test compound was performed in Biost@t Speed 2.0. “NCX1fw IC50” in Table 2 means the IC50 value for inhibition of NCX1 in forward mode (in μM (micromol/liter)).

For the molecule `Cc1ccccc1[C@@H]1CCc2cc(Oc3ncc(C(=O)NCCO)s3)ccc2O1` [Example 326, 2-((S)-2-o-Tolyl-chroman-6-yloxy)-thiazole-5-carboxylic acid (2-hydroxy-ethyl)-amide], the IC50 stood at 200 nM.
The same measure for `Cc1ccccc1C1CCc2cc(Oc3ncc(CNC(=O)CN4CCCC4=O)s3)ccc2O1` (stereo not drawn) [Example 327, 2-(2-Oxo-pyrrolidin-1-yl)-N-[2-(2-o-tolyl-chroman-6-yloxy)-thiazol-5-ylmethyl]-acetamide]: 3000 nM; for `CCCNC(=O)c1cnc(Oc2ccc3c(c2)CCC(c2ccccc2C)O3)s1` (stereo not drawn) [Example 330, 2-(2-o-Tolyl-chroman-6-yloxy)-thiazole-5-carboxylic acid propylamide]: 350 nM.
The result for `Cc1ccccc1C1CCc2cc(Oc3nc(C)c(C(=O)NCc4ccno4)s3)ccc2O1` (stereo not drawn) [Example 334, 4-Methyl-2-(2-o-tolyl-chroman-6-yloxy)-thiazole-5-carboxylic acid (isoxazol-5-ylmethyl)-amide] reads 2100 nM; that for `Cc1ccc(F)cc1C1CCc2cc(Oc3ncc(C(=O)NCCO)s3)ccc2O1` (stereo not drawn) [Example 342, 2-[2-(5-Fluoro-2-methyl-phenyl)-chroman-6-yloxy]-thiazole-5-carboxylic acid (2-hydroxy-ethyl)-amide], 700 nM.
Turning to `CCCNC(=O)c1cnc(Oc2ccc3c(c2)CCC(c2cc(F)ccc2C)O3)s1` (stereo not drawn) [Example 343, 2-[2-(5-Fluoro-2-methyl-phenyl)-chroman-6-yloxy]-thiazole-5-carboxylic acid propylamide], the IC50 was 800 nM.
